According to ChEMBL document CHEMBL5223139, “Synthesis of 1-(5-(4-chlorophenyl)-1-(2,4-dichlorophenyl)-4-methyl-1H-pyrazol-3-yl)-2-morpholinoethane-1,2-dione analogues and their inhibitory activities with reduced cytotoxicity in lipopolysaccharide-induced BV2 cells” (Bioorg Med Chem Lett, 2023):
Active and inactive are the calls of the source. The calls are words filed in the database; no cut-off is given here.

Tests used:
[1] = Cytotoxicity against mouse BV-2 cells assessed as cell viability at 5 uM incubated for 24 hrs by MTT assay relative to control; assay type: toxicity, cell-based; settings: read-out: Activity
[2] = Cytotoxicity against mouse BV-2 cells assessed as cell viability at 10 uM incubated for 24 hrs by MTT assay relative to control; assay type: toxicity, cell-based; settings: read-out: Activity
[3] = Inhibition of LPS-induced NO production in mouse BV-2 cells at 5 uM incubated for 24 hrs by Griess reagent based method relative to control; assay type: functional
[4] = Inhibition of LPS-induced NO production in mouse BV-2 cells incubated for 24 hrs by Griess reagent based method; assay type: functional, cell-based; settings: BV-2, 24 h
[5] = Inhibition of LPS-induced NO production in mouse BV-2 cells at 10 uM incubated for 24 hrs by Griess reagent based method relative to control; assay type: functional
BV-2 [6] = experiment: Inhibition of NF-kappaB activation in LPS-stimulated mouse BV-2 cells assessed as reduction in phosphorylated IkappaB-alpha level pretreated for 30 mins followed by LPS stimulation by Western blot analysis; assay type: cell-based; settings: dose 5-20 µM
BV-2 [7] = experiment: Inhibition of NF-kappaB activation in LPS-stimulated mouse BV-2 cells assessed as reduction in phosphorylated p65 level pretreated for 30 mins followed by LPS stimulation by Western blot analysis; assay type: cell-based; settings: dose 5-20 µM
BV-2 [8] = experiment: Antiinflammatory activity in LPS-induced mouse BV-2 cells assessed as reduction in COX-2 mRNA expression pretreated for 1 hr followed by LPS stimulation and measured after 6 hrs by RT-PCR analysis; assay type: functional, cell-based; settings: dose 5-20 µM, time 7.0 hrs
[9] = target: MAP kinase p38 (Mus musculus) (UniProt P47811+O08911+Q9WUI1+Q9Z1B7); experiment: Inhibition of LPS-induced p38 phosphorylation in mouse BV-2 cells at 5 to 20 uM pretreated for 30 mins followed by LPS stimulation by Western blot analysis; assay type: cell-based; settings: dose 5-20 µM
[10] = target: c-Jun N-terminal kinase (Mus musculus) (UniProt Q91Y86+Q9WTU6+Q61831); experiment: Inhibition of LPS-induced JNK phosphorylation in mouse BV-2 cells at 5 to 20 uM pretreated for 30 mins followed by LPS stimulation by Western blot analysis; assay type: cell-based; settings: dose 5-20 µM
BV-2 [11] = experiment: Antiinflammatory activity in LPS-induced mouse BV-2 cells assessed as reduction in IL-1beta mRNA expression pretreated for 1 hr followed by LPS stimulation and measured after 6 hrs by RT-PCR analysis; assay type: functional, cell-based; settings: dose 5-20 µM, time 7.0 hrs
BV-2 [12] = experiment: Antiinflammatory activity in LPS-induced mouse BV-2 cells assessed as reduction in IL-6 mRNA expression pretreated for 1 hr followed by LPS stimulation and measured after 6 hrs by RT-PCR analysis; assay type: functional, cell-based; settings: dose 5-20 µM, time 7.0 hrs
BV-2 [13] = experiment: Antiinflammatory activity in LPS-induced mouse BV-2 cells assessed as reduction in TNF-alpha mRNA expression pretreated for 1 hr followed by LPS stimulation and measured after 6 hrs by RT-PCR analysis; assay type: functional, cell-based; settings: dose 5-20 µM, time 7.0 hrs
BV-2 [14] = experiment: Antiinflammatory activity in LPS-induced mouse BV-2 cells assessed as reduction in iNOS protein expression pretreated for 1 hr followed by LPS stimulation and measured after 18 hrs by Western blot analysis; assay type: functional, cell-based; settings: dose 5-20 µM, time 19.0 hrs
BV-2 [15] = experiment: Inhibition of LPS-induced ERK phosphorylation in mouse BV-2 cells pretreated for 30 mins followed by LPS stimulation by Western blot analysis; assay type: cell-based; settings: dose 5-20 µM
BV-2 [16] = experiment: Antiinflammatory activity in LPS-induced mouse BV-2 cells assessed as reduction in iNOS mRNA expression pretreated for 1 hr followed by LPS stimulation and measured after 6 hrs by RT-PCR analysis; assay type: functional, cell-based; settings: dose 5-20 µM, time 7.0 hrs
BV-2 [17] = experiment: Antiinflammatory activity in LPS-induced mouse BV-2 cells assessed as reduction in COX-2 protein expression pretreated for 1 hr followed by LPS stimulation and measured after 18 hrs by Western blot analysis; assay type: functional, cell-based; settings: dose 5-20 µM, time 19.0 hrs

Chain of c-Jun N-terminal kinase (Mus musculus) (Q61831 whole entry, looked up): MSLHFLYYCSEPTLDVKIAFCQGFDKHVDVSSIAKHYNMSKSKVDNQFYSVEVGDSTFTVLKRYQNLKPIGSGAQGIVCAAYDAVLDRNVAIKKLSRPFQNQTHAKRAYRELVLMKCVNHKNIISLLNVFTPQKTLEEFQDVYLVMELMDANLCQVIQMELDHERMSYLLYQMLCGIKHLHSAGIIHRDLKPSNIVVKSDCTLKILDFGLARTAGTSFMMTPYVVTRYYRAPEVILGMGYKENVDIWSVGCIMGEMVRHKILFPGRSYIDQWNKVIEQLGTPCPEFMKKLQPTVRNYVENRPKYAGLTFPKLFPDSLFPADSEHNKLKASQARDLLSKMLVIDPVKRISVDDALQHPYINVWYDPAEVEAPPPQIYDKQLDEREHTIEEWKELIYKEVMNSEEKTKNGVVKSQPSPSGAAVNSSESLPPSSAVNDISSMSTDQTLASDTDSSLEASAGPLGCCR
Chain of c-Jun N-terminal kinase (Mus musculus) (Q91Y86 whole entry, looked up): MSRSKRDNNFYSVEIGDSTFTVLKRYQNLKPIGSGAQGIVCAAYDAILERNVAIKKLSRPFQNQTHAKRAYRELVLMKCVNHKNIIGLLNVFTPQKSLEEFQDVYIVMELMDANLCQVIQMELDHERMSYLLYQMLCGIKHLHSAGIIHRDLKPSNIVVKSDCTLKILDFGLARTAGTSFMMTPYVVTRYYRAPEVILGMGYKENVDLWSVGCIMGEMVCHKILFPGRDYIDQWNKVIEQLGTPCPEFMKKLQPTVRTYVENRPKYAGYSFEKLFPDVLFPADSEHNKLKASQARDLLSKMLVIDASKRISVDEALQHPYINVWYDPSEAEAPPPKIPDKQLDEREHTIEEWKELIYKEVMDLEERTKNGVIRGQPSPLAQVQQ
Chain of c-Jun N-terminal kinase (Mus musculus) (Q9WTU6 whole entry, looked up): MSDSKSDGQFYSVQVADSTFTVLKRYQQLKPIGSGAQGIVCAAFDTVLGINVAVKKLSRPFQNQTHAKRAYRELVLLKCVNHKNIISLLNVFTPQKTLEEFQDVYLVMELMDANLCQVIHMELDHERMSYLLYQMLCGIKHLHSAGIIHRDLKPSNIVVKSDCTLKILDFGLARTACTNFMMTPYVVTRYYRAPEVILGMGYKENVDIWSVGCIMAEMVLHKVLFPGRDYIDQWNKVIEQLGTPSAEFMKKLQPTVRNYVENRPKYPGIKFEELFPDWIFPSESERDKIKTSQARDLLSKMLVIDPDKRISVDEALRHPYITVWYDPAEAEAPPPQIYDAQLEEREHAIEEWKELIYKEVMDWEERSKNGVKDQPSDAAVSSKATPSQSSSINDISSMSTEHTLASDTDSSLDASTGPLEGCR

With `CCCCCCCNC(=O)C(=O)c1nn(-c2ccc(Cl)cc2Cl)c(-c2ccc(Cl)cc2)c1C` the viability at 24 h, 5 µM [1] was less than 80%.

`Cc1c(C(=O)C(=O)NC2CCCCC2)nn(-c2ccc(Cl)cc2Cl)c1-c1ccc(Cl)cc1` gave a viability at 24 h, 10 µM [2] of less than 80%, an inhibition at 5 µM [3] of 87.4% and a viability at 24 h, 5 µM [1] of 96.8%.

Work on `Cc1c(C(=O)C(=O)NC(C)C)nn(-c2ccc(Cl)cc2Cl)c1-c1ccc(Cl)cc1` yielded a viability at 24 h, 5 µM [1] of less than 80%.

Work on `Cc1c(C(=O)C(=O)NCCCO)nn(-c2ccc(Cl)cc2Cl)c1-c1ccc(Cl)cc1` yielded a viability at 24 h, 5 µM [1] of less than 80%.

`Cc1c(C(=O)C(=O)N2CCNCC2)nn(-c2ccc(Cl)cc2Cl)c1-c1ccc(Cl)cc1` gave a viability at 24 h, 5 µM [1] of less than 80%.

Molecule `Cc1c(C(=O)C(=O)NN2CCCCC2)nn(-c2ccc(Cl)cc2Cl)c1-c1ccc(Cl)cc1` has a viability at 24 h, 5 µM [1] of less than 80%.

In the case of `CCCCCCNC(=O)C(=O)c1nn(-c2ccc(Cl)cc2Cl)c(-c2ccc(Cl)cc2)c1C`, the viability at 24 h, 5 µM [1] is reported as less than 80%.

`Cc1c(C(=O)C(=O)NC(C)(C)C)nn(-c2ccc(Cl)cc2Cl)c1-c1ccc(Cl)cc1` showed a viability at 24 h, 5 µM [1] of less than 80%.

`CCCCCNC(=O)C(=O)c1nn(-c2ccc(Cl)cc2Cl)c(-c2ccc(Cl)cc2)c1C` gave a viability at 24 h, 5 µM [1] of less than 80%.

With `Cc1c(C(=O)C(=O)N2CCCC2)nn(-c2ccc(Cl)cc2Cl)c1-c1ccc(Cl)cc1` the viability at 24 h, 5 µM [1] was less than 80%.

In the case of `Cc1c(C(=O)C(=O)NCCO)nn(-c2ccc(Cl)cc2Cl)c1-c1ccc(Cl)cc1`, the IC50 [4] is reported as 5.08 µM, the viability at 24 h, 10 µM [2] is reported as 93.6% and the inhibition at 5 µM [3] is reported as 62.8%. For the same molecule, the viability at 24 h, 5 µM [1] was 94.2% and the inhibition at 10 µM [5] was 73.4%.

In the case of `Cc1c(C(=O)C(=O)N2CCCCC2)nn(-c2ccc(Cl)cc2Cl)c1-c1ccc(Cl)cc1`, the IC50 [4] is reported as 5.82 µM, the viability at 24 h, 10 µM [2] is reported as 80% and the inhibition at 5 µM [3] is reported as 20.3%. For the same molecule, the viability at 24 h, 5 µM [1] was 98.2% and the inhibition at 10 µM [5] was 50.1%.

Work on `CCNC(=O)C(=O)c1nn(-c2ccc(Cl)cc2Cl)c(-c2ccc(Cl)cc2)c1C` yielded a viability at 24 h, 10 µM [2] of less than 80%, an inhibition at 5 µM [3] of 63.7% and a viability at 24 h, 5 µM [1] of 86.4%.

Work on `Cc1c(C(=O)C(=O)N2CCN(C)CC2)nn(-c2ccc(Cl)cc2Cl)c1-c1ccc(Cl)cc1` yielded a viability at 24 h, 10 µM [2] of no more than 80%, an inhibition at 5 µM [3] of 38.1% and a viability at 24 h, 5 µM [1] of 95.2%. It also gave an inhibition at 10 µM [5] of 48%.

For `Cc1c(C(=O)C(=O)NCC(C)C)nn(-c2ccc(Cl)cc2Cl)c1-c1ccc(Cl)cc1`, the viability at 24 h, 5 µM [1] was less than 80%.

Work on `Cc1c(C(=O)C(=O)N2CCC(O)CC2)nn(-c2ccc(Cl)cc2Cl)c1-c1ccc(Cl)cc1` yielded a viability at 24 h, 5 µM [1] of less than 80%.

For `CCCCCCCCNC(=O)C(=O)c1nn(-c2ccc(Cl)cc2Cl)c(-c2ccc(Cl)cc2)c1C`, the viability at 24 h, 5 µM [1] was less than 80%.

`CCCCNC(=O)C(=O)c1nn(-c2ccc(Cl)cc2Cl)c(-c2ccc(Cl)cc2)c1C` showed a viability at 24 h, 5 µM [1] of less than 80%.

Work on `Cc1c(C(=O)NN2CCCCC2)nn(-c2ccc(Cl)cc2Cl)c1-c1ccc(Cl)cc1` [RIMONABANT] yielded an IC50 [4] of 16.2 µM, a viability at 24 h, 10 µM [2] of 91.2% and an inhibition at 5 µM [3] of 21.2%. For the same molecule, the viability at 24 h, 5 µM [1] was 99.3% and the inhibition at 10 µM [5] was 43.9%.

In the case of `Cc1c(C(=O)C(=O)NC2CCC(O)CC2)nn(-c2ccc(Cl)cc2Cl)c1-c1ccc(Cl)cc1` (stereo unspecified), the viability at 24 h, 5 µM [1] is reported as less than 80%.

With `Cc1c(C(=O)C(=O)N2CCSCC2)nn(-c2ccc(Cl)cc2Cl)c1-c1ccc(Cl)cc1` the IC50 [4] was 5.28 µM, the viability at 24 h, 10 µM [2] was 96.5% and the inhibition at 5 µM [3] was 13.5%. It also gave a viability at 24 h, 5 µM [1] of 99.6% and an inhibition at 10 µM [5] of 58.3%.

Work on `Cc1c(C(=O)C(=O)NC2CCCC2)nn(-c2ccc(Cl)cc2Cl)c1-c1ccc(Cl)cc1` yielded a viability at 24 h, 5 µM [1] of less than 80%.

For `Cc1c(C(=O)C(=O)N2CCCCCC2)nn(-c2ccc(Cl)cc2Cl)c1-c1ccc(Cl)cc1`, the viability at 24 h, 5 µM [1] was less than 80%.

`Cc1c(C(=O)C(=O)NC23CC4CC(CC(C4)C2)C3)nn(-c2ccc(Cl)cc2Cl)c1-c1ccc(Cl)cc1` gave a viability at 24 h, 5 µM [1] of less than 80%.

`Cc1c(C(=O)C(=O)NC2CCCCCC2)nn(-c2ccc(Cl)cc2Cl)c1-c1ccc(Cl)cc1` gave a viability at 24 h, 5 µM [1] of less than 80%.

For `Cc1c(C(=O)C(=O)N2CCOCC2)nn(-c2ccc(Cl)cc2Cl)c1-c1ccc(Cl)cc1`, the IC50 [4] was 4.71 µM, the inhibition (BV-2 [6]) was “Dose-Dependent Effect” and the inhibition (BV-2 [7]) was “Dose-Dependent Effect”. The Activity (BV-2 [8]) was “Dose-Dependent Effect”, the viability at 24 h, 10 µM [2] was 98.7% and the inhibition [9] was “inactive”. For the same molecule, the inhibition [10] was “inactive”, the Activity (BV-2 [11]) was “Dose-Dependent Effect” and the Activity (BV-2 [12]) was “Dose-Dependent Effect”. The Activity (BV-2 [13]) was “Dose-Dependent Effect”, the inhibition at 5 µM [3] was 26.1% and the viability at 24 h, 5 µM [1] was 98%. The inhibition at 10 µM [5] was 49.7%, the Activity (BV-2 [14]) was “Dose-Dependent Effect” and the inhibition (BV-2 [15]) was “Dose-Dependent Effect”. The Activity (BV-2 [16]) was “Dose-Dependent Effect” and the Activity (BV-2 [17]) was “Dose-Dependent Effect”.

In the case of `CCCNC(=O)C(=O)c1nn(-c2ccc(Cl)cc2Cl)c(-c2ccc(Cl)cc2)c1C`, the viability at 24 h, 5 µM [1] is reported as less than 80%.
